Results from patent US20260069606A1, “Oxidative Stress and Diabetes Treatment with Cobinamide” (The Regents of the University of California, priority 2022, published 2026).

Assays:
[1] = system: Jun N-terminal kinase (JNK) phosphorylation in H9c2 cells; experiment: H2O2-induced JNK phosphorylation, immunoblotting; assay type: cell-based, rat
Description: (§1) FIGS. 3A-3H. […] FIGS. 3A-3B. […] FIG. 3A. […] FIG. 3B. […] FIGS. 3C-3D. […] FIG. 3D. […] FIGS. 3E-3F. […] FIG. 3E. Representative blots are shown. […] FIG. 3F. […] FIG. 3G. […] FIG. 3H.

[2] = system: H9c2 rat embryonal cardiomyocytes; experiment: Mitochondrial superoxide content, MitoSOX Red fluorescence; assay type: cell-based
Experimental: as §1
H9c2 cells were plated on glass cover slips in 24 well dishes, and 16 h later the medium was changed to phenol red-free DMEM supplemented with 20 mM Hepes, 0.1% fetal bovine serum, and 0.5% bovine serum albumin. […] MitoSOX Red is a dihydroethidium derivative containing triphenyl-phosphonium, which localizes it to respiring mitochondria. Its reaction with O2·^− yields 2-hydroxy-mitoethidium (2-OH-Mito-E″), whereas its reaction with other oxidative species yields mitoethidium (Mito-E^+)^67. These two oxidative derivatives have overlapping fluorescence spectra, but they can be distinguished by high performance liquid chromatography (HPLC)^68. Rotenone increased 2-OH-Mito-E^+ about two-fold, without increasing Mito-E^+. Thus, any increased fluorescence observed on treating cells with rotenone could be ascribed to an increase in 2-OH-Mito-E^+, and decreased fluorescence by an anti-oxidant in rotenone-treated cells was likely from a decrease in 2-OH-Mito-E^+.
The cells were then washed once with PBS, placed back in the DMEM experimental medium, and incubated with the indicated drugs for 30 min. At the end of the incubation period, nuclei of both the MitoSOX Red- and JC-1-treated cells were stained with […] 4′,6-diamidino-2-phenyl-indole (DAPI) for 3 min, washed once with PBS, and returned to the DMEM experimental medium. The cover slips were removed from the wells, mounted in the DMEM experimental medium, and red (MitoSOX Red and JC-1 aggregates), green (JC-1 monomers), and blue (DAPI) fluorescence intensity was assessed using a Keyence BZ-X700 fluorescence microscope at the following paired excitation/emission wavelengths, respectively: 560/630, 490/525, and 360/460 nm.
To assess if cobinamide reduces oxidative stress in cells and to compare its […] efficacy to that of cobalamin, imisopasem, and MnTBAP, several sets of experiments were performed. First, whether cobinamide reduces mitochondrial-generated O2·^− was evaluated using the fluorescent probe MitoSOX Red. H9c2 rat embryonal cardiomyocytes were treated with rotenone, an inhibitor of complex I, to increase mitochondrial O2·^−. […] Monitoring the UV-visible spectrum of cobinamide is a sensitive means to assess ligand binding^38.

[3] = Tolerability in non-diabetic and streptozotocin-diabetic mice (weight, liver and renal function); assay type: in vivo
Description: The water was replenished twice a week.
Over the three-month treatment period, the non-diabetic mice gained an average of 4.1±0.8 g. while the diabetic mice lost an average of 0.3 g, with wide variation in weight change among the latter mice.

[4] = mice, same amount of cobinamide for six months; cited from earlier work
[5] = second order; literature values; cited from earlier work
[6] = system: mouse model of human familial aortic aneurysm; settings: 1 mM cobinamide in drinking water; cited from earlier work

## C/C1=C2/[N-][C@H]([C@H](CC(N)=O)[C@@]2(C)CCC(=O)NC[C@@H](C)O)[C@]2(C)N=C(/C(C)=C3N=C(/C=C4N=C1[C@@H](CCC(N)=O)C\4(C)C)[C@@H](CCC(N)=O)[C@]\3(C)CC(N)=O)[C@@H](CCC(N)=O)[C@]2(C)CC(N)=O.[Co+3] [cobinamide, aquohydroxo-cobinamide]
[1]; H9c2, 100 μM H2O2 30 min, drugs at 100 μM
  JNK phosphorylation in H2O2-treated cells: reduced JNK phosphorylation to a level that was indistinguishable from vehicle-treated cells
[1]; H9c2, drug alone
  JNK phosphorylation or total cellular JNK in the absence of H2O2: neither Cbi(III), Cbi(II) nor the other three drugs affected JNK phosphorylation
[2]; H9c2, 5 μM rotenone 30 min, drugs at 2.5 μM
  MitoSOX red fluorescence in rotenone-treated cells: markedly reduced fluorescence
[2]; H9c2, vehicle-treated cells without rotenone, 2.5 μM
  MitoSOX red fluorescence, drug alone: no change
[3]; mouse, in vivo
  Average weight gain of cobinamide-treated diabetic mice: 0.63 g
  Effect on weight: did not significantly affect weight
  Liver function and renal function tests: no effect
[3]; non-diabetic and diabetic mice, three months in drinking water
  Tolerability: well tolerated
[4]
  Hematological parameters: did not affect hematological parameters
[5]
  Rate constant, reaction with nitric oxide (·NO), published: 2.4 × 10^8 (51) M^−1 s^−1
[6]
  Aortic oxidative stress, pathological changes and aneurysm formation: blocked the increase in oxidative stress and pathological changes, and prevented aneurysm formation
  Clinical or laboratory evidence of toxicity: no clinical or laboratory evidence of toxicity
